The values that follow come from paper PMC7528119, “The rapid “teabag” method for high-end purification of membrane proteins” (Scientific Reports, 2020).

The assay concerns the target T1, KCC2 (Monodelphis domestica, UniProt F6WQ48).
T1 construct: gene SLC12A5; N-terminal His and FLAG tag
T1 sequence (F6WQ48 1-1115): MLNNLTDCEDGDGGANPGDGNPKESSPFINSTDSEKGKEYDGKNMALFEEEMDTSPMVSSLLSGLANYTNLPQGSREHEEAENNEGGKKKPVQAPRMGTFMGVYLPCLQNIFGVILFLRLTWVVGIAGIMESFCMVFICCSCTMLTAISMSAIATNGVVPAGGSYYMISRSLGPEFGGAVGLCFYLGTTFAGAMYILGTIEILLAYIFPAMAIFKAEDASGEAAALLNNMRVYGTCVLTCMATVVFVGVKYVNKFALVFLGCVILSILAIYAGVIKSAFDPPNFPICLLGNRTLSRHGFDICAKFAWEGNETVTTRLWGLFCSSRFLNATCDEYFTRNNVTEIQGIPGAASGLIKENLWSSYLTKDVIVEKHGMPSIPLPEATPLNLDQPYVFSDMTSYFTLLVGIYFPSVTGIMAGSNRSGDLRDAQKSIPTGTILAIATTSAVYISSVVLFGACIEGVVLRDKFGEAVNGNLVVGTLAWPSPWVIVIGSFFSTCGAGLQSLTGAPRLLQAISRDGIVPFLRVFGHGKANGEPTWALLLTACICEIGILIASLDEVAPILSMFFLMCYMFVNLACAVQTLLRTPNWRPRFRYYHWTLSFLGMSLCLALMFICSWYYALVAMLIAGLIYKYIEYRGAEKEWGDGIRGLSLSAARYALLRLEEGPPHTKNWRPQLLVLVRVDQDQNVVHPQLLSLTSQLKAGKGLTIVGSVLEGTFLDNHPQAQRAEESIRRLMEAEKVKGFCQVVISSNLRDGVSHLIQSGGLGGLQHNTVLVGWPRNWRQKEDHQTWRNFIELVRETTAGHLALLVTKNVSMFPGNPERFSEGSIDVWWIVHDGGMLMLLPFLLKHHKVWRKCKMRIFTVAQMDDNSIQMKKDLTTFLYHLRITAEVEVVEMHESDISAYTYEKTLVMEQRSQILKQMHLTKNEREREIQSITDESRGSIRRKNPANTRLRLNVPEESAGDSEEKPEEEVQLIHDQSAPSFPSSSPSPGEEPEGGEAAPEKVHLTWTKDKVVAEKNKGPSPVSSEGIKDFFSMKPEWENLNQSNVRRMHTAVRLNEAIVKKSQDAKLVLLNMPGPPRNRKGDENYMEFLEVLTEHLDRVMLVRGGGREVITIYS
In words: SPR steady-state affinity on covalently immobilized KCC2. Format: binding.

As a reminder, the Kd is the free concentration of one partner at which half of the binding sites on the other are occupied at equilibrium, for simple one-to-one binding. A lower Kd goes with tighter binding.

`Cc1csc(N(C(=O)CSc2ccc(-c3ccccc3)nn2)C2CC2)n1` [VU0463271] had a Kd of 750 ± 250 nM.
